Eight cell lines from the supplement of paper PMC10307832 can be followed below.

Common to all, as to experiment: relative viability (nuclei count vs DMSO), 5 days (fraction); higher = more cells survive
Compound in assay [1]: C1COCCN1C2=NC(=NC3=C2OC4=C3C=CC=N4)C5=CC(=CC=C5)NC(=O)C6=CN=C(C=C6)N + CCNC(=O)c1noc(-c2cc(C(C)C)c(O)cc2O)c1-c1ccc(CN2CCOCC2)cc1 [Luminespib] (partner 0.01 µM)
The gist of the method: (§1)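 Lung cancer cell lines were seeded in 1536-well plates and dosed by pin tool the next day, with either a single drug or a fixed anchor-drug dose combined with five library-drug doses (not always all listed) spaced in √10 steps. Five days later, one step fixed the cells and stained their nuclei (final 0.05% Triton X-100, 1% formaldehyde, 1 ug/ml Hoechst), and nuclei were counted on 4× images. Relative viability is the nuclei count in treated wells divided by the count in vehicle wells, and each value is the median of duplicate plates.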

Compound in the assay “SGI-1776 + Decitabine”: CN1CCC(CNc2ccc3ncc(-c4cccc(OC(F)(F)F)c4)n3n2)CC1 [SGI-1776] + Nc1ncn([C@H]2C[C@H](O)[C@@H](CO)O2)c(=O)n1 [Decitabine] (partner 2 µM)
In outline:
as §1

Compound in the assay “SGI-1776 + Vorinostat”: CN1CCC(CNc2ccc3ncc(-c4cccc(OC(F)(F)F)c4)n3n2)CC1 [SGI-1776] + O=C(CCCCCCC(=O)Nc1ccccc1)NO [Vorinostat] (partner 1 µM)
The gist of the method: as §1

Compound in the assay “Entinostat + Bortezomib”: Nc1ccccc1NC(=O)c1ccc(CNC(=O)OCc2cccnc2)cc1 [Entinostat] + CC(C)C[C@H](NC(=O)[C@H](Cc1ccccc1)NC(=O)c1cnccn1)B(O)O [Bortezomib] (partner 0.002 µM)
In outline:
as §1

Regarding LXF-289, the relative viability in assay [1] (first compound 0.02 µM) amounted to 0.598; in assay [1] (first compound 0.06325 µM), 0.798; in assay [1] (first compound 0.2 µM), 0.783; in assay [1] (first compound 0.6325 µM), 0.494; in assay [1] (first compound 2 µM), 0.321; with SGI-1776 + Decitabine (first compound 0.08 µM), 0.384. The relative viability with SGI-1776 + Decitabine (first compound 0.8 µM) turned out to be 0.366; in the assay with SGI-1776 + Decitabine (first compound 2.53 µM), 0.369; with SGI-1776 + Decitabine (first compound 8 µM) it was 0.326; in the assay with SGI-1776 + Vorinostat (first compound 0.08 µM) it was 0.693; with SGI-1776 + Vorinostat (first compound 0.8 µM) it was 0.827; with SGI-1776 + Vorinostat (first compound 2.53 µM) it was 0.79. Further, the relative viability was 0.682 with SGI-1776 + Vorinostat (first compound 8 µM); 1.01 with Entinostat + Bortezomib (first compound 0.02 µM); 0.986 in the assay with Entinostat + Bortezomib (first compound 0.06325 µM); 0.96 with Entinostat + Bortezomib (first compound 0.2 µM); 0.725 with Entinostat + Bortezomib (first compound 0.6325 µM); 0.646 with Entinostat + Bortezomib (first compound 2 µM).
NCI-H23: the relative viability in assay [1] (first compound 0.02 µM) is 0.185; in assay [1] (first compound 0.06325 µM), 0.203; in assay [1] (first compound 0.2 µM), 0.191; in assay [1] (first compound 0.6325 µM), 0.208; in assay [1] (first compound 2 µM), 0.212; with SGI-1776 + Decitabine (first compound 0.08 µM) it was 0.326. The relative viability was determined as 0.323 in the assay with SGI-1776 + Decitabine (first compound 0.8 µM); 0.35 with SGI-1776 + Decitabine (first compound 2.53 µM); 0.305 with SGI-1776 + Decitabine (first compound 8 µM); 0.639 with SGI-1776 + Vorinostat (first compound 0.08 µM); 0.758 with SGI-1776 + Vorinostat (first compound 0.8 µM); 0.602 with SGI-1776 + Vorinostat (first compound 2.53 µM). In addition, the relative viability with SGI-1776 + Vorinostat (first compound 8 µM) is 0.533; with Entinostat + Bortezomib (first compound 0.02 µM), 0.91; with Entinostat + Bortezomib (first compound 0.06325 µM) it was 1.41; with Entinostat + Bortezomib (first compound 0.2 µM), 1.12; with Entinostat + Bortezomib (first compound 0.6325 µM), 0.808; with Entinostat + Bortezomib (first compound 2 µM) it was 0.497.
In the case of NCI-H322M, the relative viability in assay [1] (first compound 0.02 µM) stood at 0.988; in assay [1] (first compound 0.06325 µM) it was 0.981; in assay [1] (first compound 0.2 µM) it was 0.742; in assay [1] (first compound 0.6325 µM), 0.735; in assay [1] (first compound 2 µM) it was 0.484; with SGI-1776 + Decitabine (first compound 0.08 µM), 0.724. Further, the relative viability was 0.753 with SGI-1776 + Decitabine (first compound 0.8 µM); 0.65 in the assay with SGI-1776 + Decitabine (first compound 2.53 µM); 0.658 with SGI-1776 + Decitabine (first compound 8 µM); 0.882 with SGI-1776 + Vorinostat (first compound 0.08 µM); 0.926 in the assay with SGI-1776 + Vorinostat (first compound 0.8 µM); 0.846 with SGI-1776 + Vorinostat (first compound 2.53 µM). For the same cell line, the relative viability with SGI-1776 + Vorinostat (first compound 8 µM) worked out at 0.707; with Entinostat + Bortezomib (first compound 0.02 µM), 1.33; with Entinostat + Bortezomib (first compound 0.06325 µM) it was 1.33; with Entinostat + Bortezomib (first compound 0.2 µM), 1.31; with Entinostat + Bortezomib (first compound 0.6325 µM), 1.27; with Entinostat + Bortezomib (first compound 2 µM), 1.3.
With NCI-H441, the relative viability turned out to be 0.284 in assay [1] (first compound 0.02 µM); 0.314 in assay [1] (first compound 0.06325 µM); 0.324 in assay [1] (first compound 0.2 µM); 0.501 in assay [1] (first compound 0.6325 µM); 0.25 in assay [1] (first compound 2 µM); 0.26 with SGI-1776 + Decitabine (first compound 0.08 µM). Further, the relative viability in the assay with SGI-1776 + Decitabine (first compound 0.8 µM) was 0.26; in the assay with SGI-1776 + Decitabine (first compound 2.53 µM), 0.236; in the assay with SGI-1776 + Decitabine (first compound 8 µM), 0.22; with SGI-1776 + Vorinostat (first compound 0.08 µM) it was 0.929; with SGI-1776 + Vorinostat (first compound 0.8 µM) it was 0.761; with SGI-1776 + Vorinostat (first compound 2.53 µM), 0.867. In addition, the relative viability came out at 0.658 with SGI-1776 + Vorinostat (first compound 8 µM); 0.443 with Entinostat + Bortezomib (first compound 0.02 µM); 0.598 with Entinostat + Bortezomib (first compound 0.06325 µM); 0.409 in the assay with Entinostat + Bortezomib (first compound 0.2 µM); 0.181 with Entinostat + Bortezomib (first compound 0.6325 µM); 0.118 with Entinostat + Bortezomib (first compound 2 µM).
Consider NCI-H460, for which the relative viability in assay [1] (first compound 0.02 µM) worked out at 0.0333; in assay [1] (first compound 0.06325 µM) it was 0.035; in assay [1] (first compound 0.2 µM), 0.0284; in assay [1] (first compound 0.6325 µM), 0.0243; in assay [1] (first compound 2 µM) it was 0.0278; with SGI-1776 + Decitabine (first compound 0.08 µM) it was 0.476. Moreover, the relative viability was found to be 0.61 with SGI-1776 + Decitabine (first compound 0.8 µM); 0.49 with SGI-1776 + Decitabine (first compound 2.53 µM); 0.494 in the assay with SGI-1776 + Decitabine (first compound 8 µM); 0.887 with SGI-1776 + Vorinostat (first compound 0.08 µM); 0.688 with SGI-1776 + Vorinostat (first compound 0.8 µM); 0.717 with SGI-1776 + Vorinostat (first compound 2.53 µM). For the same cell line, the relative viability came out at 0.715 in the assay with SGI-1776 + Vorinostat (first compound 8 µM); 1.09 with Entinostat + Bortezomib (first compound 0.02 µM); 1.05 with Entinostat + Bortezomib (first compound 0.06325 µM); 0.85 with Entinostat + Bortezomib (first compound 0.2 µM); 0.0581 with Entinostat + Bortezomib (first compound 0.6325 µM); 0.0179 in the assay with Entinostat + Bortezomib (first compound 2 µM).
With NCI-H520, the relative viability in assay [1] (first compound 0.02 µM) is 0.224; in assay [1] (first compound 0.06325 µM) it was 0.21; in assay [1] (first compound 0.2 µM), 0.244; in assay [1] (first compound 0.6325 µM), 0.233; in assay [1] (first compound 2 µM), 0.201; in the assay with SGI-1776 + Decitabine (first compound 0.08 µM), 0.46. Further, the relative viability was determined as 0.523 with SGI-1776 + Decitabine (first compound 0.8 µM); 0.511 in the assay with SGI-1776 + Decitabine (first compound 2.53 µM); 0.414 with SGI-1776 + Decitabine (first compound 8 µM); 0.711 with SGI-1776 + Vorinostat (first compound 0.08 µM); 0.779 with SGI-1776 + Vorinostat (first compound 0.8 µM); 0.797 with SGI-1776 + Vorinostat (first compound 2.53 µM). The relative viability in the assay with SGI-1776 + Vorinostat (first compound 8 µM) turned out to be 0.561; with Entinostat + Bortezomib (first compound 0.02 µM), 0.602; with Entinostat + Bortezomib (first compound 0.06325 µM) it was 0.667; with Entinostat + Bortezomib (first compound 0.2 µM), 0.558; with Entinostat + Bortezomib (first compound 0.6325 µM), 0.195; with Entinostat + Bortezomib (first compound 2 µM), 0.161.
Turning to NCI-H596, the relative viability in assay [1] (first compound 0.02 µM) came to 0.985; in assay [1] (first compound 0.06325 µM) it was 1.04; in assay [1] (first compound 0.2 µM), 0.968; in assay [1] (first compound 0.6325 µM), 0.992; in assay [1] (first compound 2 µM) it was 0.408; with SGI-1776 + Decitabine (first compound 0.08 µM), 1.02. Moreover, the relative viability stood at 1.05 in the assay with SGI-1776 + Decitabine (first compound 0.8 µM); 1.15 with SGI-1776 + Decitabine (first compound 2.53 µM); 0.997 with SGI-1776 + Decitabine (first compound 8 µM); 0.583 in the assay with SGI-1776 + Vorinostat (first compound 0.08 µM); 0.75 with SGI-1776 + Vorinostat (first compound 0.8 µM); 0.595 with SGI-1776 + Vorinostat (first compound 2.53 µM). The relative viability in the assay with SGI-1776 + Vorinostat (first compound 8 µM) was determined as 0.485; with Entinostat + Bortezomib (first compound 0.02 µM) it was 1.09; with Entinostat + Bortezomib (first compound 0.06325 µM), 1.16; in the assay with Entinostat + Bortezomib (first compound 0.2 µM), 1; in the assay with Entinostat + Bortezomib (first compound 0.6325 µM), 0.974; in the assay with Entinostat + Bortezomib (first compound 2 µM), 0.902.
Consider NCI-H647, for which the relative viability in assay [1] (first compound 0.02 µM) is 0.31; in assay [1] (first compound 0.06325 µM), 0.193; in assay [1] (first compound 0.2 µM), 0.189; in assay [1] (first compound 0.6325 µM), 0.125; in assay [1] (first compound 2 µM), 0.127; with SGI-1776 + Decitabine (first compound 0.08 µM) it was 0.409. The relative viability with SGI-1776 + Decitabine (first compound 0.8 µM) stood at 0.392; with SGI-1776 + Decitabine (first compound 2.53 µM) it was 0.44; with SGI-1776 + Decitabine (first compound 8 µM), 0.339; with SGI-1776 + Vorinostat (first compound 0.08 µM), 0.539; with SGI-1776 + Vorinostat (first compound 0.8 µM), 0.61; with SGI-1776 + Vorinostat (first compound 2.53 µM), 0.604. For the same cell line, the relative viability in the assay with SGI-1776 + Vorinostat (first compound 8 µM) was determined as 0.322; with Entinostat + Bortezomib (first compound 0.02 µM), 1.02; with Entinostat + Bortezomib (first compound 0.06325 µM), 1.01; with Entinostat + Bortezomib (first compound 0.2 µM) it was 0.869; with Entinostat + Bortezomib (first compound 0.6325 µM), 0.216; with Entinostat + Bortezomib (first compound 2 µM), 0.0717.
